The values that follow come from patent publication US10138247B2, “7-(morpholin-4-yl)pyrazole[1,5-A]pyrimidine derivatives as PI3 kinase inhibitors” (priority 2015, dated 2018).

Assay type in all cases: biochemical
Experiment [1] concerns the target T1, PI3Kδ (Homo sapiens, UniProt O00329).
T1 construct: purchased Merck Millipore
Kind of experiment: PI3K kinases inhibition in vitro (ADP-Glo), PI3Kδ. The procedure: (§1) Tested compounds were dissolved in 100% DMSO, and thus obtained solutions were serially diluted in 1× reaction buffer. Recombinant kinase was diluted in a reaction mixture comprising 5× reaction buffer, substrate (1 mM sodium diacetate 4,5-bisphosphate phosphatydylinositol (PIP2) solution in 40 mM Tris buffer), and water. To the wells in a 96-wells plate, 5 μl of compounds solutions and 15 μl of the kinase solution in the reaction mixture were added. To initiate interaction of tested chemical compounds with the enzyme, the plate was incubated for 10 minutes at suitable temperature in a plate thermostat with orbital shaking at 600 rpm. Negative control wells contained all above reagents except tested compound and kinase, and positive control wells contained all above reagents except tested compounds. Enzymatic reaction was initiated by adding 5 μl of 150 μM ATP solution, subsequently the plate was incubated for 1 hour at 25° C. or 30° C. (depending on PI3K isoform tested) in plate thermostat with orbital shaking of the plate contents at 600 rpm. Reaction conditions are presented below in Table 12.
(§2) Detection of ADP formed in the enzymatic reaction was then performed using ADP-Glo Kinase Assay (Promega). To the wells of a 96-well plate 25 μl of ADP-Glo Reagent were added, and the plate was incubated for 40 minutes at 25° C. in a plate thermostat with orbital shaking at 600 rpm. Then to the wells of 96-well plate 50 μl of Kinase Detection Reagent were added and the plate was incubated for 40 minutes at 25° C. in a plate thermostat with orbital shaking at 600 rpm. After incubation time, luminescence intensity in a well was measured by Victor Light luminometer (Perkin Elmer, Inc.).
(§3) IC50 values were determined on the basis of luminescence intensity measurements in wells containing tested compounds at different concentrations and in control wells. These values were calculated with Graph Pad 5.03 software by fitting the curve using non-linear regression. Each compound was tested at least in quadruplicates (4 wells) on two 96-well plates using at least 4 wells of each of the controls.

Experiment [2] concerns the target T2, PI3Kα (Homo sapiens, UniProt P42336).
T2 construct: purchased Carna Biosciences
Kind of experiment: PI3K kinases inhibition in vitro (ADP-Glo), PI3Kα. As to the method: as §1, §2, §3
A general note: ADP-Glo first removes unused ATP, then detects ADP through luciferase.

Experiment [3] has as its target T3, PI3Kγ (Homo sapiens, UniProt P48736).
T3 construct: purchased Merck Millipore
Kind of experiment: PI3K kinases inhibition in vitro (ADP-Glo), PI3Kγ. As to the method: as §1, §2, §3

The target in experiment [4] is T4, PI3Kβ (Homo sapiens, UniProt P42338).
T4 construct: purchased Merck Millipore
The experiment can be described thus: PI3K kinases inhibition in vitro (ADP-Glo), PI3Kβ. The procedure:
as §1, §2, §3

Where [5] appears, read: averaged, recombinant kinase, 25° C., 1 h, PIP2 30 μM, read-out: PI3Kδ IC50.
Where [6] appears, read: averaged, recombinant kinase, 30° C., 1 h, PIP2 50 μM, read-out: PI3Kγ IC50.
Where [7] appears, read: averaged, recombinant kinase, 30° C., 1 h, PIP2 50 μM, read-out: PI3Kβ IC50.

Like-named read-outs stand apart in the source and are kept apart here.

T4 sequence (P42338 whole entry): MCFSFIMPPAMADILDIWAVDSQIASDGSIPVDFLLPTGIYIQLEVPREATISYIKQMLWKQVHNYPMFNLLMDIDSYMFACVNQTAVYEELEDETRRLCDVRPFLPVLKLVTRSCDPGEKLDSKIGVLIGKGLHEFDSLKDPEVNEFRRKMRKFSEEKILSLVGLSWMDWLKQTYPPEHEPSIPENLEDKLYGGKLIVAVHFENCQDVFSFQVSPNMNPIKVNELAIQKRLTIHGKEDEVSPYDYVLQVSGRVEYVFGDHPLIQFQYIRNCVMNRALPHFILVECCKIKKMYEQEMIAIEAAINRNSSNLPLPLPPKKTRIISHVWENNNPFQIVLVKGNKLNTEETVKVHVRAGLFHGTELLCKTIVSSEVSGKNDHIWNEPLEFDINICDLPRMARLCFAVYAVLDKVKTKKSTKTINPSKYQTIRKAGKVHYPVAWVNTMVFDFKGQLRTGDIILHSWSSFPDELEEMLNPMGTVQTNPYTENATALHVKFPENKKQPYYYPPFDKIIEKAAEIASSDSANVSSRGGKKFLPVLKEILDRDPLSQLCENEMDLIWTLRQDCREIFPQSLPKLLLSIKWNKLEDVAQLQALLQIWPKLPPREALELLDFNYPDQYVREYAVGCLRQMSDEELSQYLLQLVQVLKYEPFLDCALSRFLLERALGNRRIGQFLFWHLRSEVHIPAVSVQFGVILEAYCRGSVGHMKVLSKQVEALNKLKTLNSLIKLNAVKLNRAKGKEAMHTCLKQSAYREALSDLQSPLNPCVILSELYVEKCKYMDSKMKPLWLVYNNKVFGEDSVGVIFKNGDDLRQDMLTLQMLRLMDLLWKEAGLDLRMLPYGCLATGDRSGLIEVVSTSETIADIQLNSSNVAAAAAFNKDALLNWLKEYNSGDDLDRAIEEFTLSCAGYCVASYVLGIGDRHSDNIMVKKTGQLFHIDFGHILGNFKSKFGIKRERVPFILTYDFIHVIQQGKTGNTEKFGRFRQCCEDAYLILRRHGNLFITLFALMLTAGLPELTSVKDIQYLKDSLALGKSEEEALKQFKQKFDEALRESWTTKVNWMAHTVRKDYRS
T4 sequence (P27986 whole entry, further chain): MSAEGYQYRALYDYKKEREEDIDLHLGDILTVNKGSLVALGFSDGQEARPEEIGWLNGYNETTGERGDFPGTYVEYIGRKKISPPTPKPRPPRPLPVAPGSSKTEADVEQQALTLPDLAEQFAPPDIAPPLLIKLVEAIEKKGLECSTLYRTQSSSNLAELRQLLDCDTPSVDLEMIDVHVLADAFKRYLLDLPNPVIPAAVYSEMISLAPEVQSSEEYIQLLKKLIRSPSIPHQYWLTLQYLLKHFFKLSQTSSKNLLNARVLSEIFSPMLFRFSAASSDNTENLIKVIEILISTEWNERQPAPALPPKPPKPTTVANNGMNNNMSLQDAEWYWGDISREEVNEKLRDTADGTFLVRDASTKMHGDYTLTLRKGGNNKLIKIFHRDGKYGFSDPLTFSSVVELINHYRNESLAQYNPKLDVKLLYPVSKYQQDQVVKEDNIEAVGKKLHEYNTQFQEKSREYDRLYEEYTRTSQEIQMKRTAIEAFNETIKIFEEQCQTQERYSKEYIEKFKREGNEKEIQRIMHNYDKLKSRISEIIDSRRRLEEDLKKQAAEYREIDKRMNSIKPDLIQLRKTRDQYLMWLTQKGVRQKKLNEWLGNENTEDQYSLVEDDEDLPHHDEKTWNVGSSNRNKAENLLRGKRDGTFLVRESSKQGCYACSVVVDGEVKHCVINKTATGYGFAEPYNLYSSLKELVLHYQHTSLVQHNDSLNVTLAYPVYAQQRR
T3 sequence (P48736 whole entry): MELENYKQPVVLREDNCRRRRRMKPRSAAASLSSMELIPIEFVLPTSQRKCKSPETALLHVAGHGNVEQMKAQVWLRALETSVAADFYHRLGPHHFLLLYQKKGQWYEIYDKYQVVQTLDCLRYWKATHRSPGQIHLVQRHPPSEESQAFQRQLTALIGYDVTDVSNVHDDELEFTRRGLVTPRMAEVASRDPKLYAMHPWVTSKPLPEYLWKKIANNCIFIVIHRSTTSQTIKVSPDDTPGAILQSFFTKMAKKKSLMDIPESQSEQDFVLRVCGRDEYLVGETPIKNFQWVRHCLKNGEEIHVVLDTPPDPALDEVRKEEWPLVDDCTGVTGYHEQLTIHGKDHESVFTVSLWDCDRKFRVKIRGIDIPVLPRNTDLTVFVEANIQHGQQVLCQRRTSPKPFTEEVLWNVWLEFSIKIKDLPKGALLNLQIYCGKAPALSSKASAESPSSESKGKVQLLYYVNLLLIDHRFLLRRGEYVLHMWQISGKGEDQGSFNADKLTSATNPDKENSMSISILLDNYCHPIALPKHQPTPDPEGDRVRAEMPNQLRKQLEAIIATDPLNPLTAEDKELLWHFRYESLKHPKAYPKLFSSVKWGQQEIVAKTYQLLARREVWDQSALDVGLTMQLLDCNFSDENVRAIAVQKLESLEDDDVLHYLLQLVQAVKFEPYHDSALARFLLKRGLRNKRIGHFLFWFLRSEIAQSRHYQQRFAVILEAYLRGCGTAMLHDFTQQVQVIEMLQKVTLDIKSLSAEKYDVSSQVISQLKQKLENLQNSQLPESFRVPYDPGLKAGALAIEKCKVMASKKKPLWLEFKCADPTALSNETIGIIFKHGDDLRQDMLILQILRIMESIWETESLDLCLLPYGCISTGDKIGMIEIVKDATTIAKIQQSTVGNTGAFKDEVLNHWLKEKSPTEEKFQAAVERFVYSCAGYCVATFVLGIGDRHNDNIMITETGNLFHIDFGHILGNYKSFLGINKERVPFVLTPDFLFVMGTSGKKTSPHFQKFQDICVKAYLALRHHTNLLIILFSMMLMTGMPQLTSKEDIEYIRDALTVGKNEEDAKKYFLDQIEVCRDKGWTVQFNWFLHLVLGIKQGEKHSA
T1 sequence (O00329 whole entry): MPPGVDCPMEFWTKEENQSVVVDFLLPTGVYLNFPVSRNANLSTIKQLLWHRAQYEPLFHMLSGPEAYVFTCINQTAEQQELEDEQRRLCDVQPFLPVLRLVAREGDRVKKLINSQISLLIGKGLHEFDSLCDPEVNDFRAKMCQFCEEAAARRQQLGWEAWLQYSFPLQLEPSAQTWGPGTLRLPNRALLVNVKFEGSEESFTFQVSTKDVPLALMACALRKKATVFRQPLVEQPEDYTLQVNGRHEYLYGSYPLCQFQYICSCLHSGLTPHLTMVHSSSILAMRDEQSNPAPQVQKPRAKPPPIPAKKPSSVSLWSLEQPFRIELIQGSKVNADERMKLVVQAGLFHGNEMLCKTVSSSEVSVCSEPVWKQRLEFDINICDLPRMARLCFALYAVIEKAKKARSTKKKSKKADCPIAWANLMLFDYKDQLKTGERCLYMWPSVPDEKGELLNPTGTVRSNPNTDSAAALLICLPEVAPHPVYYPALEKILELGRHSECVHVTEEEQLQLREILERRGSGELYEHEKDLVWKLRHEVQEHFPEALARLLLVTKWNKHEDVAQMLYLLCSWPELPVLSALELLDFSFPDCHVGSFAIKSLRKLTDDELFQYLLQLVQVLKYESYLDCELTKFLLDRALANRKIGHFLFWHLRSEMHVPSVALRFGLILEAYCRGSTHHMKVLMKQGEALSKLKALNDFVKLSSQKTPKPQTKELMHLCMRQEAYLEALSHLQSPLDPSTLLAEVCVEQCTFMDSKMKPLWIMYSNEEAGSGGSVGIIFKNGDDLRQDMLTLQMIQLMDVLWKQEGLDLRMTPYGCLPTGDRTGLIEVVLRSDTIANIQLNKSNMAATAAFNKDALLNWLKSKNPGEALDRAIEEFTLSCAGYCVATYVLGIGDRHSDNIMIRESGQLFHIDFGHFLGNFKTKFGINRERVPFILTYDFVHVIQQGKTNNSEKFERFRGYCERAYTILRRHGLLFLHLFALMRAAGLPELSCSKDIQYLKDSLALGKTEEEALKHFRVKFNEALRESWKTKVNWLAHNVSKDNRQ
T1 sequence (P27986 whole entry, further chain): as the sequence (P27986 whole entry, further chain) above
T2 sequence (P42336 whole entry): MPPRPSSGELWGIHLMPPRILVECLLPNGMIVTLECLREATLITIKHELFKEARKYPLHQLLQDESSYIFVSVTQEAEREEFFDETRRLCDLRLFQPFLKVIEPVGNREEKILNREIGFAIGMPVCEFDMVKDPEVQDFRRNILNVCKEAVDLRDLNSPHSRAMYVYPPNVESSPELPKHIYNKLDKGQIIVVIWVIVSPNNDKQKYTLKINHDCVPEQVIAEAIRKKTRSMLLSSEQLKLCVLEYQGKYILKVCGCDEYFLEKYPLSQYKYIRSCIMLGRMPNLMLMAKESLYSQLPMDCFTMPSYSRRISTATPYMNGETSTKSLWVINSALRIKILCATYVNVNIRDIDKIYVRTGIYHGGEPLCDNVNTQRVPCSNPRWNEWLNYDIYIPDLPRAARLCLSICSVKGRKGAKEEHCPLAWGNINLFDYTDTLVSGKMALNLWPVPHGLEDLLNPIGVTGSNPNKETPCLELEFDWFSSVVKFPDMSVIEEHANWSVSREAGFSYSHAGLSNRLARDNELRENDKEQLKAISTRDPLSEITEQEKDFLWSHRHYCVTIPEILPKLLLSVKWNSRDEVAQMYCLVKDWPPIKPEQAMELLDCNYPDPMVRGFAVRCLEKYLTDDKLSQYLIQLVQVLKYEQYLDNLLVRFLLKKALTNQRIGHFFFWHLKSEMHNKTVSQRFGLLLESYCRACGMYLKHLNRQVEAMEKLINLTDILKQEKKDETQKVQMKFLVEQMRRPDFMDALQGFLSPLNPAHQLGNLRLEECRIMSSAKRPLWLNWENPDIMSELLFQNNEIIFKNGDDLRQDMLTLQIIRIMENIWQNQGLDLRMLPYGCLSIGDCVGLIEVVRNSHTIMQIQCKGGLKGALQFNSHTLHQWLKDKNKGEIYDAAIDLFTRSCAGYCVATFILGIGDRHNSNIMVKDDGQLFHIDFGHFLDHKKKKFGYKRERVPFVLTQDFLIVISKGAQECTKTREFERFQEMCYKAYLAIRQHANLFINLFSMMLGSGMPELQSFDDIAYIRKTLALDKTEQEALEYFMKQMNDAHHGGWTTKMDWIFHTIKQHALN
T2 sequence (P27986 whole entry partner): as the sequence (P27986 whole entry, further chain) above

In general, IC50 refers to the concentration that inhibits the measured activity by half. On to `O=C(C1CC1)N1CCN(Cc2cc3nc(-c4cccc5[nH]ccc45)cc(N4CCOCC4)n3n2)CC1` [Example 1, 2-((4-(cyclopropanecarbonyl)piperazin-1-yl)methyl)-5-(1H-indol-4-yl)-7-(morpholin-4-yl)pyrazolo[1,5-a]pyrimidine], for which the IC50 in experiment [1] (setting [5]) was < 0.1 µM; in experiment [2] it was > 1 µM; in experiment [3] (setting [6]) it was 0.1 to 1 µM; in experiment [4] (setting [7]) it was > 1 µM.
Regarding `CN(C)C1CCN(Cc2cc3nc(-c4cccc5[nH]ccc45)cc(N4CCOCC4)n3n2)CC1` [Example 5, 2-((4-(dimethylamino)piperidin-1-yl)methyl)-5-(1H-indol-4-yl)-7-(morpholin-4-yl)pyrazolo[1,5-a]-pyrimidine], the IC50 in experiment [1] was < 0.1 µM; in experiment [2], > 1 µM; in experiment [3] it was > 1 µM; in experiment [4], > 1 µM.
As for `CC(C)(O)C1CCN(Cc2cc3nc(-c4c(F)ccc5[nH]ccc45)cc(N4CCOCC4)n3n2)CC1` [Example 7, 2-((4-(2-hydroxypropan-2-yl)-piperidin-1-yl)methyl)-5-(5-fluoro-1H-indol-4-yl)-7-(morpholin-4-yl)-pyrazolo[1,5-a]pyrimidine], the IC50 in experiment [1] (setting [5]) is < 0.1 µM; in experiment [2] it was > 1 µM; in experiment [3] (setting [6]) it was > 1 µM; in experiment [4] (setting [7]), > 1 µM.
As to `CC(C)(C(N)=O)N1CCN(Cc2cc3nc(-c4cccc5[nH]ccc45)cc(N4CCOCC4)n3n2)CC1` [Example 9, 2-(4-((5-(1H-indol-4-yl)-7-(morpholin-4-yl)pyrazolo[1,5-a]-pyrimidin-2-yl)methyl)piperazin-1-yl)-2-methyl-propionamide], the IC50 in experiment [1] is < 0.1 µM; in experiment [2] it was > 1 µM; in experiment [3] it was > 1 µM; in experiment [4] it was > 1 µM.
As to `CC(C)(C(N)=O)N1CCN(Cc2cc3nc(-c4c(F)ccc5[nH]ccc45)cc(N4CCOCC4)n3n2)CC1` [Example 10, 2-(4-((5-(5-fluoro-1H-indol-4-yl)-7-(morpholin-4-yl)pyrazolo[1,5-a]-pyrimidin-2-yl)methyl)piperazin-1-yl)-2-methyl-propionamide], the IC50 in experiment [1] (setting [5]) is < 0.1 µM; in experiment [2], > 1 µM; in experiment [3] (setting [6]) it was > 1 µM; in experiment [4] (setting [7]), > 1 µM.
`CN(C)C1CCN(Cc2cc3nc(-c4c(F)ccc5[nH]ccc45)cc(N4CCOCC4)n3n2)CC1` [Example 13, 2-((4-(dimethylamino)piperidin-1-yl)methyl)-5-(5-fluoro-1H-indol-4-yl)-7-(morpholin-4-yl)pyrazolo[1,5-a]pyrimidine]: the IC50 in experiment [1] (setting [5]) was < 0.1 µM; in experiment [2] it was > 1 µM; in experiment [3] (setting [6]) it was > 1 µM; in experiment [4] (setting [7]), > 1 µM.
In the case of `CC(C)(C)N1CCN(Cc2cc3nc(-c4ccc(N)nc4)cc(N4CCOCC4)n3n2)CC1` [Example 16, 5-(2-aminopyridin-5-yl)-2-((4-tert-butylpiperazin-1-yl)methyl)-7-(morpholin-4-yl)pyrazolo[1,5-a]-pyrimidine], the IC50 was < 0.1 µM in experiment [1] (setting [5]), > 1 µM in experiment [2], > 1 µM in experiment [3] (setting [6]) and > 1 µM in experiment [4] (setting [7]).
Take `CC(C)(C)N1CCN(Cc2cc3nc(-c4cnc(N)nc4)cc(N4CCOCC4)n3n2)CC1` [Example 17, 5-(2-aminopyrimidin-5-yl)-2-((4-tert-butylpiperazin-1-yl)methyl)-7-(morpholin-4-yl)pyrazolo[1,5-a]-pyrimidine]: the 50% inhibitory concentration (IC50) was < 0.1 µM in experiment [1] (setting [5]), > 1 µM in experiment [2], > 1 µM in experiment [3] (setting [6]) and > 1 µM in experiment [4] (setting [7]).
As for `CC(C)(O)C1CCN(Cc2cc3nc(-c4ccc(N)nc4)cc(N4CCOCC4)n3n2)CC1` [Example 19, 5-(2-aminopyridin-5-yl)-2-((4-(2-hydroxypropan-2-yl)piperidin-1-yl)methyl)-7-(morpholin-4-yl)-pyrazolo[1,5-a]pyrimidine], the IC50 is < 0.1 µM in experiment [1] (setting [5]), > 1 µM in experiment [2], > 1 µM in experiment [3] (setting [6]) and > 1 µM in experiment [4] (setting [7]).
Consider `c1cc(-c2cc(N3CCOCC3)n3nc(CN4CCN(C5CC5)CC4)cc3n2)c2cc[nH]c2c1` [Example 20, 2-((4-cyclopropyl-piperazin-1-yl)-methyl)-5-(1H-indol-4-yl)-7-(morpholin-4-yl)pyrazolo[1,5-a]-pyrimidine], for which the IC50 in experiment [1] is < 0.1 µM; in experiment [2], > 1 µM; in experiment [4], > 1 µM.
As for `CCN1CCN(Cc2cc3nc(-c4cccc5[nH]ccc45)cc(N4CCOCC4)n3n2)CC1` [Example 22, 2-((4-ethylpiperazin-1-yl)methyl)-5-(1H-indol-4-yl)-7-(morpholin-4-yl)pyrazolo[1,5-a]pyrimidine], the IC50 in experiment [1] was < 0.1 µM; in experiment [2], > 1 µM; in experiment [3] it was > 1 µM; in experiment [4], > 1 µM.
As to `c1cc(-c2cc(N3CCOCC3)n3nc(CN4CC(N5CCOCC5)C4)cc3n2)c2cc[nH]c2c1` [Example 25, 5-(1H-indol-4-yl)-2-((3-(morpholin-4-yl)azetidin-1-yl)methyl)-7-(morpholin-4-yl)pyrazolo[1,5-a]-pyrimidine], the IC50 was < 0.1 µM in experiment [1], > 1 µM in experiment [2], > 1 µM in experiment [3] and > 1 µM in experiment [4].
As for `CC(C)(C)C1CCN(Cc2cc3nc(-c4cccc5[nH]ccc45)cc(N4CCOCC4)n3n2)CC1` [Example 28, 2-((4-tert-butylpiperidin-1-yl)-methyl)-5-(1H-indol-4-yl)-7-(morpholin-4-yl)pyrazolo[1,5-a]-pyrimidine], the IC50 in experiment [1] was < 0.1 µM; in experiment [2], > 1 µM; in experiment [3] it was > 1 µM; in experiment [4] it was > 1 µM.
On to `CC(C)(O)C1CCN(Cc2cc3nc(-c4cncc5[nH]ccc45)cc(N4CCOCC4)n3n2)CC1` [Example 29, 5-(1H-6-azaindol-4-yl)-2-((4-(2-hydroxypropan-2-yl)piperidin-1-yl)methyl)-7-(morpholin-4-yl)-pyrazolo[1,5-a]pyrimidine], for which the IC50 in experiment [1] (setting [5]) was < 0.1 µM; in experiment [2], > 1 µM; in experiment [4] (setting [7]) it was > 1 µM.
For the compound `CC(C)(C)N1CCN(Cc2cc3nc(-c4cncc5[nH]ccc45)cc(N4CCOCC4)n3n2)CC1` [Example 30, 5-(1H-6-azaindol-4-yl)-2-((4-tert-butylpiperazin-1-yl)methyl)-7-(morpholin-4-yl)pyrazolo[1,5-a]-pyrimidine], the IC50 was < 0.1 µM in experiment [1], > 1 µM in experiment [2], > 1 µM in experiment [3] and > 1 µM in experiment [4].
On to `O=S1(=O)CCN(C2CN(Cc3cc4nc(-c5cccc6[nH]ccc56)cc(N5CCOCC5)n4n3)C2)CC1` [Example 31, 5-(1H-indol-4-yl)-2-((3-(1,1-dioxothiomorpholin-4-yl)azetidin-1-yl)methyl)-7-(morpholin-4-yl)-pyrazolo[1,5-a]pyrimidine], for which the IC50 is < 0.1 µM in experiment [1], > 1 µM in experiment [2], > 1 µM in experiment [3] and > 1 µM in experiment [4].
For `CC(C)(C)N1CCN(Cc2cc3nc(-c4ccnc5[nH]ccc45)cc(N4CCOCC4)n3n2)CC1` [Example 32, 5-(1H-7-azaindol-4-yl)-2-((4-tert-butylpiperazin-1-yl)methyl)-7-(morpholin-4-yl)pyrazolo[1,5-a]-pyrimidine], the IC50 in experiment [1] (setting [5]) is < 0.1 µM; in experiment [2], > 1 µM; in experiment [4] (setting [7]), > 1 µM.
As to `CC(C)(O)C1CCN(Cc2cc3nc(-c4ccnc5[nH]ccc45)cc(N4CCOCC4)n3n2)CC1` [Example 33, 5-(1H-7-azaindol-4-yl)-2-((4-(2-hydroxypropan-2-yl)piperidin-1-yl)methyl)-7-(morpholin-4-yl)-pyrazolo[1,5-a]pyrimidine], the IC50 in experiment [1] (setting [5]) was < 0.1 µM; in experiment [2] it was > 1 µM; in experiment [3] (setting [6]), > 1 µM; in experiment [4] (setting [7]), > 1 µM.
Take `CC(C)(C)N1CCN(Cc2cc3nc(-n4c(C5CC5)nc5ccccc54)cc(N4CCOCC4)n3n2)CC1` [Example 54, 5-(2-cyclopropylbenzimidazol-1-yl)-2-((4-tert-butylpiperazin-1-yl)-methyl)-7-(morpholin-4-yl)-pyrazolo[1,5-a]pyrimidine]: the values for the IC50 in experiment [1] (setting [5]) and in experiment [2] were 0.1 to 1 µM and > 1 µM, respectively.
The like results for `CC(C)(O)C1CCN(Cc2cc3nc(-n4c(C5CC5)nc5ccccc54)cc(N4CCOCC4)n3n2)CC1` [Example 55, 5-(2-cyclopropylbenzimidazol-1-yl)-2-((4-(2-hydroxypropan-2-yl)-piperidin-1-yl)methyl)-7-(morpholin-4-yl)pyrazolo[1,5-a]-pyrimidine] were, in that order, 0.1 to 1 µM and > 1 µM.
